{"source": "ChEMBL document CHEMBL1130363", "about": "“Design and synthesis of hapten to induce phospholipase A2-like catalytic antibody” (Bioorg Med Chem Lett, 1997)", "biological_target": "T1, Lysosomal phospholipase A and acyltransferase (Homo sapiens, UniProt Q8NCC3)", "T1 sequence (Q8NCC3 whole entry)": "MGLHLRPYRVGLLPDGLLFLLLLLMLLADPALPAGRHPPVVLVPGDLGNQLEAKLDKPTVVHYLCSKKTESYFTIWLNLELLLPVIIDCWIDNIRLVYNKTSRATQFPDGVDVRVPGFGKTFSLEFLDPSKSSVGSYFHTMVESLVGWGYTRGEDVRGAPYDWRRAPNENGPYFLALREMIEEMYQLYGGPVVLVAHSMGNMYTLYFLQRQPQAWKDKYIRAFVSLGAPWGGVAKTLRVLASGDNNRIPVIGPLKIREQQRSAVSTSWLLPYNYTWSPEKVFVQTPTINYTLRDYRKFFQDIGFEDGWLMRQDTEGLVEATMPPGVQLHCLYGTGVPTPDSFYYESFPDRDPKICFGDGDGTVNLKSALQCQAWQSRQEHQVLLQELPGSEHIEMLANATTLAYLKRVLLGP", "assay": "Inhibitory activity against phospholipase A2 enzyme", "data": [{"compound": "CCCCCCCCCCP(=O)(O)OC(COCCCCCCCCCC(=O)OC)COP(=O)([O-])OCC[N+](C)(C)C", "note": "(stereo unspecified) [ESTER OF PHOSPHOLIPID]", "values": [{"measurement": "IC50", "value": 9.75, "unit": "mM"}]}]}
